Measured values reported in US6235493A, “Amino acid substituted-cresyl violet, synthetic fluorogenic substrates for the analysis of agents in individual in vivo cells or tissue” (priority 1998, dated 2001).
Values joined by “and” are separate entries in the source; they are usually repeats but may differ in a detail not shown here. Identical values can stand only once. Starred links: 1 amine or outer side, 2 acyl side, 3 side chain; linkers in the order of their positions; H or OH if unused. Non-standard residues stand in square brackets, D forms with d. Residues, ends and D or L forms follow the SMILES beside them. *: point of attachment. hPhe = N[C@@H](CCc1ccccc1)C(=O)O; Morpholide = C1CN(*)CCO1; CO = O=C([*:1])[*:2]; CH2F = FC*

Assays:
[1] = Body weight and liver weight of FMK-treated rats; format: in vivo, rat; conditions: 20 mg FMK/kg daily oral 14 days
Description: (§1) Sixteen rats were treated orally with 20 mg FMK per kg body weight dissolved in PBS and 5% dimethylformamide daily for 14 days starting one week before administration of the CC531 cells and continuing until sacrifice. Oral administration was performed directly into the stomach with a plastic tube attached to a syringe. Dosage and type of treatment were selected on the basis of previous experiments in which rats were treated with FMK-related inhibitors of cathepsins (34,40,53). The other 16 animals were treated similarly with PBS and dimethylformamide only. The LD50 of this type of FMK is at least 20-fold higher than the dosages used in the present experiment (40,53).
Seven days after administration of CC531 cells, the animals were weighed and sacrificed with an overdose of sodium pentobarbital. Livers were removed immediately, the individual lobes were weighed and dissected and cut into small pieces (up to 5 mm thick) according to a rigid dissection scheme. The left lateral lobe was cut into eight pieces, the median lobe into nine pieces, the right lateral and caudate lobes into four pieces. […]
Significant differences between the caudate lobe and the other liver lobes with respect to the endothelial compartment or distribution patterns of extracellular matrix compounds (see Table 1 for specification of parameters investigated) could not be detected either.

[2] = tested on: CC531 colon cancer cells; experiment: Colon cancer (CC531) metastasis in rat liver: number and volume of tumors per lobe; format: in vivo
Description: Induction of Metastasis in Rat Liver
Colon carcinoma tumors were induced in rat liver by injection of a single cell suspension containing 1×10^6 CC531 cells into the portal vein of 32 mature male WAG-Rij rats, weighing 180-200 g (Broekman, Someren, The Netherlands) as described previously in detail (46,51,52).
Treatment of Rats with FMK
as §1
Preparation of Cryostat Sections of Liver
Seven days after administration of CC531 cells, the animals were weighed and sacrificed with an overdose of sodium pentobarbital. Livers were removed immediately, the individual lobes were weighed and dissected and cut into small pieces (up to 5 mm thick) according to a rigid dissection scheme. The left lateral lobe was cut into eight pieces, the median lobe into nine pieces, the right lateral and caudate lobes into four pieces. Tissue fragments were frozen in liquid nitrogen and the material was kept at -80° C. until further use. Twenty-one sites were randomly selected in all lobes of each liver before the experiments were carried out. From these sites, sections (8 μm thick) were cut on a motor-drivencryostat with a rotary retracting microtome (Bright, Huntingdon, UK) at a constant but low speed and a cabinet temperature of -25° C. Sections were picked up onto clean glass slides and stored in the cryostat cabinet until used. These methods have been described in detail in Reference 54.
Staining of Tissue Sections
To facilitate recognition of cancer cells, cryostat sections were stained either with the periodic acid Schiff (PAS) reaction (54) or immunohistochemically using the lectin Ulex europaeus agglutinin I (Dako, Glostrup, Denmark), a selective marker of CC531 cells in rat (51,55). Immunocompetenet cells, endothelial cells and components of the extracellular matrix were localized with a panel of antibodies (Table 1) as described in detail by Griffini et al. (52). Control incubations were performed by replacing the first antibodies by non-immune sera in the same dilutions.
For calculation of the number and percentage volume of tumors in each liver lobe, the 8 micron thick sections were analyzed morphometrically using a Quantimet Q500 (Leica, Cambridge, UK) after staining with the lectin Ulex for the detection of cancer cells. The number of tumors was expressed per unit volume of liver tissue ±standard error of the mean or as ratio of the number of tumors in FMK-treated rats and those in untreated rats (×100). The percentage volume of tumors was expressed as the ratio of the volume of tumors and the total volume of the liver tissue including tumors ±standard error of the mean. Statistical analysis was performed with the 2-tailed Mann-Whitney test using the software program JPM (SAS Institute, Cary, N.C.).
The number of tumors is expressed per unit volume of liver tissue ± SEM or as the ratio of the number of tumors in treated rats compared with untreated rats (×100; %) as determined morphometrically in 8 μm thick cryostat sections stained with the lectin Ulex europaeus agglutinin I. Differences in number of tumors in left lateral and median lobes but not in right lateral and caudate lobes between treated and untreated animals were significant (P=0.006 and P=0.1, respectively). […]

[3] = target: cathepsin B (Rattus norvegicus, UniProt P00787); experiment: Cathepsin B activity in homogenates of liver lobes of rats after oral FMK treatment; format: in vivo; conditions: 20 mg FMK per kg body weight daily, 14 days, all four lobes
Description: as §1
Cathepsin B activity was determined in homogenates obtained from each individual liver lobe of all rats according to Cox and Eley (56) with the use of the fluorogenic substrate CBZ-Ala-Arg-Arg-7-amino-4-trifluoromethylcoumarin (Enzyme Systems Products, Dublin, Calif.).
Whether or not the two weeks of oral treatment with the inhibitor had the same effect on cathepsin B activity in all liver lobes was determined.

[4] = 20 mg FMK/kg daily oral 14 days
[5] = +FMK, 20 mg/kg daily oral 14 days, ± SEM, n = 16
[6] = weighted by relative lobe wet weight

Chain of cathepsin B (P00787 80-333): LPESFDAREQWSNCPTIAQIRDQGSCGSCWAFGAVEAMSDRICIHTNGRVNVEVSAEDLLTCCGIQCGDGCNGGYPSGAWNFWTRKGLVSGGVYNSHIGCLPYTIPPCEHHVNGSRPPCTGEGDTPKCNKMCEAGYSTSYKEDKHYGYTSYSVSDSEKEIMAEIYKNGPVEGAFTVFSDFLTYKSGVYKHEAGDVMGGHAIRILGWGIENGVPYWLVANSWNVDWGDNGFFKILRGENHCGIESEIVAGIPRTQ

## O=C(CF)[C@H](CCc1ccccc1)NC(=O)[C@H](Cc1ccccc1)NC(=O)N1CCOCC1 [FMK, Mu-Phe-homoPhe-fluoro-methylketone] ({Morpholide-CO}-Phe-[hPhe]-CH2F)
[1]
  effect on body weight, total liver weight or weight of individual lobes: did not affect body weight, total liver weight or the weight of the individual lobes
[2]; [4]
  ratio of number of tumors in treated vs untreated rats (×100), caudate lobe: 278%
  ratio of number of tumors in treated vs untreated rats (×100), left lateral lobe: 24%
  ratio of number of tumors in treated vs untreated rats (×100), median lobe: 24%
  ratio of number of tumors in treated vs untreated rats (×100), right lateral lobe: 91%
  ratio of percentage volumes in treated and untreated rats (×100), caudate lobe: 283%
  ratio of percentage volumes in treated and untreated rats (×100), left lateral lobe: 17%
  ratio of percentage volumes in treated and untreated rats (×100), median lobe: 3%
  ratio of percentage volumes in treated and untreated rats (×100), right lateral lobe: 35%
[2]; 20 mg FMK/kg per day
  average size of tumors in large lobes, treated relative to untreated: 40%
  effect on number of tumors in the caudate lobe: increased rather than decreased, although the difference was not significant
  effect on size of tumors in the caudate lobe: not affected
  number of tumors per unit volume in caudate lobe vs other lobes in treated rats: 20 fold
  reduction of total volume of tumors in the large lobes (average): 80%
[2]; 20 mg FMK/kg per day, one week before until one week after cells
  reduction of number of tumors in the large lobes (average): 60%
[2]; [5]
  number of tumors, caudate lobe: 14.2 ± 7.5 per unit volume of liver tissu
  number of tumors, left lateral lobe: 0.5 ± 0.2 per unit volume of liver tissu
  number of tumors, median lobe: 0.4 ± 0.2 per unit volume of liver tissu
  number of tumors, right lateral lobe: 1.0 ± 0.4 per unit volume of liver tissu
  percentage volume of tumors, caudate lobe: 49.8 ± 38.5%
  percentage volume of tumors, left lateral lobe: 1.4 ± 0.5%
  percentage volume of tumors, median lobe: 0.3 ± 0.6%
  percentage volume of tumors, right lateral lobe: 1.1 ± 0.2%
[2]; in vivo treatment with FMK
  effect on number or size of metastases, caudate lobe: does not reduce number or size of metastases
[2]; [6]
  reduction of mean number of tumors in the entire liver: 35%
  reduction of mean volume of tumors in the entire liver: 57%
[3]
  inhibition of cathepsin B activity in liver lobes: ~50% and 51±14%
